In data set [1] the test system is prostate carcinoma (PC-3) cells. Briefly: SRB cytotoxicity assay, PC-3. The conditions noted are these: for IC50: SRB assay, 72 h, mean ± SD of three experiments; for Selectivity Index PC-3: SI = IC50 on WI-38/IC50 on PC-3. The data set is classed as cell-based, human. The procedure:
(§1) In the present work, sulforhodamine B (SRB) colorimetric assay was done to evaluate the cytotoxic activity of the synthesized 3-cyano pyridines 4a–4e, 5a–5e, and 6a–6e on three human cancer cell lines: prostate carcinoma (PC-3), breast cancer (MDA-MB-231) and hepatocellular carcinoma (HepG2) cell lines. 5-FU was used as a standard drug for comparison.
(§2) Human cancer cells were obtained from Nawah Scientific Inc. (Mokatam, Cairo, Egypt). Cells were maintained in DMEM media containing […] streptomycin, 100 units/mL penicillin, and 10% heat-inactivated fetal bovine serum in humified, 5% (v/v) CO2 atmosphere at 37 °C.
(§3) Cell viability was estimated using the SRB assay. Aliquots of 100 µL cell suspension (5 × 10^3 cells) in 96-well plates were incubated in complete media for 24 h. Cells were treated with a second aliquot of 100 µL media containing various concentrations of the tested compounds (0.01, 0.1, 1, 10, and 100 μM). After 72 h, cells were fixed by replacing media with 15 µL of 10% TCA and then incubated at 4 °C for 1 h. After that, TCA solution was removed, and the cells were washed 5 times with distilled water. Aliquots of 70 µL SRB solution (0.4% w/v) were added and incubated in a dark place at room temperature for 10 min. Plates were washed 3 times with 1% acetic acid and allowed to air dry overnight. Then, 150 µL of TRIS (10 mM) was added to dissolve protein-bound SRB stain. The absorbance was measured at 540 nm using BMG LABTECH®-FLUO star Omega microplate reader (Ortenberg, Germany).
On the technique in general: In SRB staining, fixed cells bind dye roughly in proportion to their protein.

Data set [2] deals with breast cancer (MDA-MB-231) cells. Briefly: SRB cytotoxicity assay, MDA-MB-231. Type of data set: cell-based, human. The conditions noted are these: for IC50: SRB assay, 72 h, mean ± SD of three experiments; for Selectivity Index MDA-MB-231: SI = IC50 on WI-38/IC50 on MDA-MB-231. How it is done:
as §1, §2, §3

Data set [3] concerns hepatocellular carcinoma (HepG2) cells. Briefly: SRB cytotoxicity assay, HepG2. The data set is classed as cell-based, human. The conditions noted are these: for IC50: SRB assay, 72 h, mean ± SD of three experiments; for Selectivity Index HepG2: SI = IC50 on WI-38/IC50 on HepG2. How it is done:
as §1, §2, §3

The next data set concerns normal cell line WI-38. Briefly: SRB cytotoxicity assay, normal cell line WI-38. Type of data set: cell-based. The procedure: The cytotoxicity of the newly synthesized compounds on the normal cell line WI-38 was also evaluated in order to examine the safety of these compounds.
as §3

Setting [4] is: Homo sapiens, WI-38, mean ± SD of three experiments.

For orientation: IC50 means the concentration that gives 50% inhibition. High values mean weaker potency in that assay, low ones greater potency in that assay. Take `COc1ccc(-c2cc(-c3ccc(OCc4ccc(F)cc4)cc3)nc(N)c2C#N)cc1` [Compound 4e, 2-Amino-6-(4-((4-fluorobenzyl)oxy)phenyl)-4-(4-methoxyphenyl)nicotinonitrile]: the IC50 in data set [1] (Homo sapiens, PC-3) was above 100 µM; in data set [2] (Homo sapiens, MDA-MB-231, 72 h), above 100 µM; in data set [3] (Homo sapiens, HepG2, 72 h) it was above 100 µM; in the data set on normal cell line WI-38 (setting [4]) it was 94.7 ± 2.5 µM.

With `O=c1[nH]cc(F)c(=O)[nH]1` [Compound 5-FU, reference compound], the 50% inhibitory concentration (IC50) in data set [1] is 8.83 ± 0.09 µM; in data set [2] it was 9.35 ± 0.74 µM; in data set [3] it was 7.51 ± 0.11 µM; in the data set on normal cell line WI-38 (mean ± SD of three experiments), 7.91 ± 1.8 µM.

Consider `N#Cc1c(-c2ccc(Br)cc2)cc(-c2ccc(OCc3ccc(F)cc3)cc2)[nH]c1=S` [Compound 6d, 4-(4-Bromophenyl)-6-(4-((4-fluorobenzyl)oxy)phenyl)-2-thioxo-1,2-dihydropyridine-3-carbonitrile], for which the IC50 in data set [1] (Homo sapiens, PC-3) is 99 ± 0.19 µM; in data set [2] (Homo sapiens, MDA-MB-231, 72 h), 71.2 ± 0.56 µM; in data set [3] (Homo sapiens, HepG2, 72 h), 86 ± 0.15 µM; in the data set on normal cell line WI-38 (setting [4]), 146 ± 4.55 µM. Moreover, the “Selectivity Index PC-3” value in data set [1] was 1.47. Further, the “Selectivity Index MDA-MB-231” value in data set [2] stood at 2.04. For the same compound, in data set [3], the “Selectivity Index HepG2” value worked out at 1.69.

Regarding `N#Cc1c(-c2ccc(Cl)cc2)cc(-c2ccc(OCc3ccc(F)cc3)cc2)nc1N` [Compound 4c, 2-Amino-4-(4-chlorophenyl)-6-(4-((4-fluorobenzyl)oxy)phenyl)nicotinonitrile], the 50% inhibitory concentration (IC50) in data set [1] (Homo sapiens, PC-3) is above 100 µM; in data set [2] (Homo sapiens, MDA-MB-231, 72 h) it was above 100 µM; in data set [3] (Homo sapiens, HepG2, 72 h), 62 ± 0.61 µM; in the data set on normal cell line WI-38 (setting [4]), 137 ± 4.15 µM. The “Selectivity Index HepG2” value in data set [3] turned out to be 2.20.

Turning to `N#Cc1c(-c2ccc(Br)cc2)cc(-c2ccc(OCc3ccc(F)cc3)cc2)[nH]c1=O` [Compound 5d, 4-(4-Bromophenyl)-6-(4-((4-fluorobenzyl)oxy)phenyl)-2-oxo-1,2-dihydropyridine-3-carbonitrile], the half-inhibitory concentration (IC50) in data set [1] (Homo sapiens, PC-3) was 30.2 ± 0.85 µM; in data set [2] (Homo sapiens, MDA-MB-231, 72 h) it was 34.8 ± 0.9 µM; in data set [3] (Homo sapiens, HepG2, 72 h), 27.3 ± 0.74 µM; in the data set on normal cell line WI-38 (setting [4]), 181 ± 4.55 µM. Also, the “Selectivity Index PC-3” value in data set [1] is 5.99. In data set [2], the “Selectivity Index MDA-MB-231” value is listed as 5.20. The “Selectivity Index HepG2” value in data set [3] is reported as 6.63.

For orientation: melting point means the temperature, or range, at which the solid turns liquid. The compound `N#Cc1c(-c2ccc(F)cc2)cc(-c2ccc(OCc3ccc(F)cc3)cc2)nc1N` [Compound 4b, 2-Amino-6-(4-((4-fluorobenzyl)oxy)phenyl)-4-(4-fluorophenyl)nicotinonitrile] registered a melting point of 125 to 127 °C. The IC50 in data set [1] (Homo sapiens, PC-3) was above 100 µM. The same compound gave an IC50 in data set [2] (Homo sapiens, MDA-MB-231, 72 h) above 100 µM. In data set [3] (Homo sapiens, HepG2, 72 h), this compound showed an IC50 above 100 µM. Besides, the IC50 in the data set on normal cell line WI-38 (setting [4]) was found to be 127 ± 3.6 µM.

As to `N#Cc1c(-c2ccc(Cl)cc2)cc(-c2ccc(OCc3ccc(F)cc3)cc2)[nH]c1=S` [Compound 6c, 4-(4-Chlorophenyl)-6-(4-((4-fluorobenzyl)oxy)phenyl)-2-thioxo-1,2-dihydropyridine-3-carbonitrile], the concentration for half-maximal inhibition (IC50) in data set [1] (Homo sapiens, PC-3) is 41.9 ± 0.61 µM; in data set [2] (Homo sapiens, MDA-MB-231, 72 h), 42 ± 0.48 µM; in data set [3] (Homo sapiens, HepG2, 72 h), 38 ± 0.94 µM; in the data set with normal cell line WI-38 (setting [4]) it was 89.6 ± 2.75 µM. In addition, in data set [1], the “Selectivity Index PC-3” value turned out to be 2.13. The “Selectivity Index MDA-MB-231” value in data set [2] was determined as 2.13. For the same compound, the “Selectivity Index HepG2” value in data set [3] turned out to be 2.35.

In the case of `N#Cc1c(-c2ccc(F)cc2)cc(-c2ccc(OCc3ccc(F)cc3)cc2)[nH]c1=S` [Compound 6b, 6-(4-((4-Fluorobenzyl)oxy)phenyl)-4-(4-fluorophenyl)-2-thioxo-1,2-dihydropyridine-3-carbonitrile], the IC50 turned out to be 60 ± 0.93 µM in data set [1] (Homo sapiens, PC-3); 66.7 ± 0.12 µM in data set [2] (Homo sapiens, MDA-MB-231, 72 h); 41 ± 0.69 µM in data set [3] (Homo sapiens, HepG2, 72 h); 206 ± 4.73 µM in the data set with normal cell line WI-38 (setting [4]). The “Selectivity Index PC-3” value in data set [1] is on record as 3.42. The “Selectivity Index MDA-MB-231” value in data set [2] is given as 3.08. Also, in data set [3], the “Selectivity Index HepG2” value is given as 5.01.

In the case of `N#Cc1c(-c2ccccc2)cc(-c2ccc(OCc3ccc(F)cc3)cc2)nc1N` [Compound 4a, 2-Amino-6-(4-((4-fluorobenzyl)oxy)phenyl)-4-phenylnicotinonitrile], the IC50 was above 100 µM in data set [1] (Homo sapiens, PC-3); above 100 µM in data set [2] (Homo sapiens, MDA-MB-231, 72 h); 109 ± 0.35 µM in data set [3] (Homo sapiens, HepG2, 72 h); 164 ± 4.5 µM in the data set on normal cell line WI-38 (setting [4]). Also, the “Selectivity Index HepG2” value in data set [3] amounted to 1.50.

For the compound `N#Cc1c(-c2ccccc2)cc(-c2ccc(OCc3ccc(F)cc3)cc2)[nH]c1=S` [Compound 6a, 6-(4-((4-Fluorobenzyl)oxy)phenyl)-4-phenyl-2-thioxo-1,2-dihydropyridine-3-carbonitrile], the IC50 in data set [1] (Homo sapiens, PC-3) is above 100 µM; in data set [2] (Homo sapiens, MDA-MB-231, 72 h), 72 ± 0.52 µM; in data set [3] (Homo sapiens, HepG2, 72 h) it was 60 ± 0.1 µM; with normal cell line WI-38 (setting [4]) it was 97.4 ± 2.88 µM. Besides, the “Selectivity Index MDA-MB-231” value in data set [2] came out at 1.35. In data set [3], the “Selectivity Index HepG2” value was determined as 1.62.

Take `N#Cc1c(-c2ccccc2)cc(-c2ccc(OCc3ccc(F)cc3)cc2)[nH]c1=O` [Compound 5a, 6-(4-((4-Fluorobenzyl)oxy)phenyl)-2-oxo-4-phenyl-1,2-dihydropyridine-3-carbonitrile]: the IC50 amounted to 47.5 ± 0.611 µM in data set [1] (Homo sapiens, PC-3); 52 ± 0.4 µM in data set [2] (Homo sapiens, MDA-MB-231, 72 h); 30 ± 0.59 µM in data set [3] (Homo sapiens, HepG2, 72 h); 174 ± 4.62 µM with normal cell line WI-38 (setting [4]). In addition, the “Selectivity Index PC-3” value in data set [1] is reported as 3.66. Besides, the “Selectivity Index MDA-MB-231” value in data set [2] was found to be 3.34. In addition, the “Selectivity Index HepG2” value in data set [3] is on record as 5.80.

Regarding `N#Cc1c(-c2ccc(Br)cc2)cc(-c2ccc(OCc3ccc(F)cc3)cc2)nc1N` [Compound 4d, 2-Amino-4-(4-bromophenyl)-6-(4-((4-fluorobenzyl)oxy)phenyl)nicotinonitrile], the IC50 in data set [1] (Homo sapiens, PC-3) is 53 ± 1.12 µM; in data set [2] (Homo sapiens, MDA-MB-231, 72 h), 30 ± 0.18 µM; in data set [3] (Homo sapiens, HepG2, 72 h) it was 66 ± 0.12 µM; in the data set with normal cell line WI-38 (setting [4]), 104 ± 3.16 µM. Also, in data set [1], the “Selectivity Index PC-3” value stood at 1.96. Moreover, the “Selectivity Index MDA-MB-231” value in data set [2] was determined as 3.46. Also, the “Selectivity Index HepG2” value in data set [3] was found to be 1.57.

Turning to `N#Cc1c(-c2ccc(F)cc2)cc(-c2ccc(OCc3ccc(F)cc3)cc2)[nH]c1=O` [Compound 5b, 6-(4-((4-Fluorobenzyl)oxy)phenyl)-4-(4-fluorophenyl)-2-oxo-1,2-dihydropyridine-3-carbonitrile], the IC50 in data set [1] (Homo sapiens, PC-3) came to 34.2 ± 0.45 µM; in data set [2] (Homo sapiens, MDA-MB-231, 72 h), 26.3 ± 0.73 µM; in data set [3] (Homo sapiens, HepG2, 72 h), 21.8 ± 0.67 µM; with normal cell line WI-38 (setting [4]) it was 132 ± 4.12 µM. For the same compound, the “Selectivity Index PC-3” value in data set [1] stood at 3.84. Moreover, the “Selectivity Index MDA-MB-231” value in data set [2] is 4.99. Moreover, the “Selectivity Index HepG2” value in data set [3] was found to be 6.02.

Regarding `COc1ccc(-c2cc(-c3ccc(OCc4ccc(F)cc4)cc3)[nH]c(=S)c2C#N)cc1` [Compound 6e, 6-(4-((4-Fluorobenzyl)oxy)phenyl)-4-(4-methoxyphenyl)-2-thioxo-1,2-dihydropyridine-3-carbonitrile], the half-maximal inhibitory concentration (IC50) was 35.9 ± 0.92 µM in data set [1] (Homo sapiens, PC-3); 23.4 µM in data set [2] (Homo sapiens, MDA-MB-231, 72 h); 23.4 ± 0.7 µM in data set [2]; 40.3 µM in data set [3] (Homo sapiens, HepG2, 72 h); 40.3 ± 0.99 µM in data set [3]; 104 ± 3.16 µM in the data set with normal cell line WI-38 (setting [4]). Besides, the “Selectivity Index PC-3” value in data set [1] stood at 2.89. Also, the “Selectivity Index MDA-MB-231” value in data set [2] came to 4.43. In addition, the “Selectivity Index HepG2” value in data set [3] turned out to be 2.57.

These data come from article PMC7660103, “Discovery of Novel 3-Cyanopyridines as Survivin Modulators and Apoptosis Inducers” (Molecules, 2020).
